Data as given in publication PMC11898701, “Evaluating Therapeutic Efficacy of the Vascular Disrupting Agent OXi8007 Against Kidney Cancer in Mice” (Cancers, 2025).

Legend:
Ewing sarcoma = system: Ewing sarcoma; design: method as in PMID 19136249; settings: 200 mg/kg twice weekly; cited from earlier work
[1] = system: orthotopic XP258 human tumor xenografts; assay: Long-term therapy of XP258 human tumor xenografts; type: in vivo, mouse
Description: The animal procedures were approved by the UT Southwestern Medical Center Institutional Animal Care and Use Committee under APNs 2017-102152 and 2018-102344-CORE. Renca-luc orthotopic tumors were induced by inserting tumor tissue (~1 mm^3) harvested from a donor mouse into the right kidney of syngeneic BALB/c mice (age 8 weeks, male and female; Envigo, Indianapolis, IN, USA), as described previously. Orthotopic XP258 tumors (derived from a patient with pT3aN0M1 clear cell RCC) were obtained from the UT Southwestern Kidney Cancer SPORE [53, 54] and maintained by serial passage. Tumors were induced by inserting tumor tissues from a donor tumor into the left kidney capsule of female NOD/SCID mice (Envigo).
OXi8007, synthesized by the Pinney Laboratory using published procedures, was dissolved in saline, verified to be in the pH range 7.3 to 7.5, and dosed at 250 mg/kg (IP). Cabozantinib (in PEG400 and ultrapure H2O (Milli-Q)) was administered at 3 mg/kg by oral gavage. Anti-PD-1 (10 mg/kg, Bio X Cell, Lebanon, NH, USA) and anti-CTLA-4 (5 mg/kg, Bio X Cell, Lebanon, NH) solutions were administered (IP) on the day before OXi8007 […].
We evaluated the longitudinal effects of OXi8007 alone and in combination with drugs currently favored for treating kidney cancer. For Renca-luc tumor-bearing mice, BLI was performed at least once a week to estimate tumor size, and mice were weighed weekly to adjust the dose as needed. Two treatment cohorts examined syngeneic orthotopic Renca-luc tumors in male BALB/c mice. Treatment started when the tumors reached about 1 × 10^6 photons/s peak total flux on BLI. The first cohort examined OXi8007 with cabozantinib. Mice were divided into four groups. Mice were assigned to groups as soon as there were sufficient to add the same numbers of animals to each group. The specific assignment was defined using the random number function in Excel. As such, each group included both faster- and slower-growing tumors. […]

[2] = Blood pressure assessment (CODA system); type: in vivo, mouse
Experimental: Blood pressure was measured using a CODA system (Kent Scientific, Torrington, CT, USA) on 5 adult male BALB/c mice. Mice were anesthetized with 2% isoflurane in oxygen at 1 dm^3/min and placed on the CODA IR heating pad with a feedback rectal temperature probe and nosecone to maintain anesthesia. An occlusion cuff and VPR cuff were placed on the tail. The baseline measurement was recorded over 30 min, then OXi8007 (250 mg/kg or 325 mg/kg) was administered IP and the blood pressure measurement resumed for 45 min. As positive and negative controls, hydralazine (1 mg/kg) or saline, respectively, were injected IP.

COc1ccc2c(C(=O)c3cc(OC)c(OC)c(OC)c3)c(-c3ccc(OC)c(OP(=O)(O)O)c3)[nH]c2c1 [OXi8007]
Tumor growth delay (Ewing sarcoma): no tumor growth delay
Tumor weights at sacrifice ([1]; XP258, long-term therapy, monotherapy or combined): much smaller tumors
Survival versus controls ([1]; XP258 in NOD/SCID mice, OXi8007 250 mg/kg IP twice weekly, cabozantinib 3 mg/kg oral daily): significantly enhanced survival
Duration of temporary elevation in blood pressure ([2]; 250 mg/kg IP): less than 20 min
Diastolic blood pressure after administration ([2]; 250 mg/kg IP, 5 male BALB/c mice, baseline 84 ± 2): 82 mmHg
Mean blood pressure after administration ([2]; 250 mg/kg IP, 5 male BALB/c mice, baseline 94 ± 2): 94 mmHg
Systolic blood pressure after administration ([2]; 250 mg/kg IP, 5 male BALB/c mice, baseline 115 ± 3): 117 mmHg
Effect on mouse blood pressure ([2]; 250 mg/kg IP, systolic, diastolic or mean): minimal effect
Effect on mouse blood pressure ([2]; 325 mg/kg IP): larger transient change
